Measured values reported in patent publication US9346809B2 (LEO PHARMA A/S, priority 2009, dated 2016).
Read-outs that look alike come from different tables or passages of the source.

What was measured:
Type in all cases: biochemical
[1] = molecular target: T1, JAK1 (aa 850-1154, catalytic domain, GST-tag) (Homo sapiens, UniProt P23458); assay: JAK kinase assay (HTRF, phosphorylation of TK substrate-biotin), JAK1; settings: ATP at Km (7 μM), read-out: JAK1 kinase inhibitory activity (EC50 indicator)
T1 construct: JAK1 (aa 850-1154) and TYK2 (aa 871-1187) are expressed with an N-terminally fused GST-tag; GST (N); purchased Carna Biosciences, Inc; host or cells: baculovirus expression system
T1 sequence (P23458 850-1154): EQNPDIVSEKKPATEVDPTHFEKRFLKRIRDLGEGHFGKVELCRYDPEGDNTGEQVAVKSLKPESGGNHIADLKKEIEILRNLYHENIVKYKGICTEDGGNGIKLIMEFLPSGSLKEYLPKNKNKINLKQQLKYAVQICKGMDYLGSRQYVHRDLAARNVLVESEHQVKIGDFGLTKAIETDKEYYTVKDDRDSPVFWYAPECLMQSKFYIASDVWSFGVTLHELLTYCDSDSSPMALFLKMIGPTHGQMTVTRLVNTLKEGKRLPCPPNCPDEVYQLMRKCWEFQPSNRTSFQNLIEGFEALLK
Outline: (§1)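 HTRF KinEASE TK format; 1 μM biotinylated peptide, Km ATP: 7 μM (JAK1, 10 mM MgCl2, 50 nM SEB), 4 μM (JAK2), 2 μM (JAK3), 13 μM (TYK2, 50 nM SEB); 5 mM MgCl2 for the latter three. RT 20-30 min, 0.75% DMSO final. Overnight detection, EC50.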

[2] = molecular target: T2, JAK2 (catalytic domain, His-tag) (Homo sapiens, UniProt O60674); assay: JAK kinase assay (HTRF, phosphorylation of TK substrate-biotin), JAK2; settings: ATP at Km (4 μM), read-out: JAK2 kinase inhibitory activity (EC50 indicator)
T2 construct: All four purified enzymes contain only the catalytic domain; His (N); purchased Carna Biosciences, Inc; host or cells: baculovirus expression system
T2 sequence (O60674 849-1124 limits assumed): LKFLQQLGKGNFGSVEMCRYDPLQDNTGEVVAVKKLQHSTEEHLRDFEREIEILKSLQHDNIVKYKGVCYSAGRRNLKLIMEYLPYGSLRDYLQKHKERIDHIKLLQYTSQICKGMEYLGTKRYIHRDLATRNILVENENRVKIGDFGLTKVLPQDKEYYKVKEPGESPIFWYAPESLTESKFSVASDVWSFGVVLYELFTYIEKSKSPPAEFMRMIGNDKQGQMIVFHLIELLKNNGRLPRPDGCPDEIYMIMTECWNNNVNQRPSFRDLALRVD
Outline: as §1

[3] = molecular target: T3, JAK3 (catalytic domain, His-tag) (Homo sapiens, UniProt P52333); assay: JAK kinase assay (HTRF, phosphorylation of TK substrate-biotin), JAK3; settings: ATP at Km (2 μM), read-out: JAK3 kinase inhibitory activity (EC50 indicator)
T3 construct: All four purified enzymes contain only the catalytic domain; His (N); purchased Carna Biosciences, Inc; host or cells: baculovirus expression system
T3 sequence (P52333 822-1111 limits assumed): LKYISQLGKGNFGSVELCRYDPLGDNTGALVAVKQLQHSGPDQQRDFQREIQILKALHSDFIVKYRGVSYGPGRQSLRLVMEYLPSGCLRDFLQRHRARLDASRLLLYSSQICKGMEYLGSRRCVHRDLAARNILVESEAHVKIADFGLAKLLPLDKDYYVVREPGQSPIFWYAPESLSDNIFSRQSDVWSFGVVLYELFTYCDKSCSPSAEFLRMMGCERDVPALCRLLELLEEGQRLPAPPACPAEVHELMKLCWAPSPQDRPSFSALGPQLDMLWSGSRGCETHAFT
Outline: as §1

[4] = molecular target: T4, TYK2 (aa 871-1187, catalytic domain, GST-tag) (Homo sapiens, UniProt P29597); assay: JAK kinase assay (HTRF, phosphorylation of TK substrate-biotin), TYK2; settings: ATP at Km (13 μM), read-out: TYK2 kinase inhibitory activity (EC50 indicator)
T4 construct: JAK1 (aa 850-1154) and TYK2 (aa 871-1187) are expressed with an N-terminally fused GST-tag; GST (N); purchased Carna Biosciences, Inc; host or cells: baculovirus expression system
T4 sequence (P29597 871-1187): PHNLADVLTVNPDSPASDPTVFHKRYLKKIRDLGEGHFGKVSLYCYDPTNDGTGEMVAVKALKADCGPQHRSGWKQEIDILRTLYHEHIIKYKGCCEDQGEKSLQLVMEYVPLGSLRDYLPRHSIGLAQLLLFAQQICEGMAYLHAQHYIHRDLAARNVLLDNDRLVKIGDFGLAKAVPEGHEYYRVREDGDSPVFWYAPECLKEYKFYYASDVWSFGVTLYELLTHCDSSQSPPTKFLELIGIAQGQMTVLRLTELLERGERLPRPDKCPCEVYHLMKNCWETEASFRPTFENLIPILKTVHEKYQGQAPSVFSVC
Outline: as §1

| Structure (SMILES) | EC50 [1] [nM] | EC50 [2] [nM] | EC50 [3] [nM] | EC50 [4] [nM] | EC50 ([1]; HTRF assay) [nM] | EC50 ([2]; HTRF assay) [nM] | EC50 ([3]; HTRF assay) [nM] | EC50 ([4]; HTRF assay) [nM] |
| --- | --- | --- | --- | --- | --- | --- | --- | --- |
| CS(=O)(=O)CCC(=O)N1CCN(c2ncnc3[nH]ccc23)CC12CC2 [Example 37, 3-Methanesulfonyl-1-[7-(7H-pyrrolo[2,3-d]pyrimidin-4-yl)-4,7-diazaspiro[2.5]oct-4-yl]propan-1-one] | < 100 | < 100 | 100 to 500 | > 500 |  |  |  |  |
| CN(CC#N)C(=O)C1(C(=O)N2CCN(c3ncnc4[nH]ccc34)CC23CC3)CC1 [Example 86, 1-[7-(7H-Pyrrolo[2,3-d]pyrimidin-4-yl)-4,7-diaza-spiro[2.5]octane-4-carbonyl]-cyclopropanecarboxylic acid cyanomethyl-methyl-amide] | > 500 | 100 to 500 | > 500 | > 500 |  |  |  |  |
| O=C(Cc1ccc(F)cc1)N1CCN(c2ncnc3[nH]cc(Cl)c23)CC12CC2 [Example 320, 1-[7-(5-Chloro-7H-pyrrolo[2,3-d]pyrimidin-4-yl)-4,7-diaza-spiro[2.5]oct-4-yl]-2-(4-fluoro-phenyl)-ethanone] |  |  |  |  | 100 to 500 | < 100 | 100 to 500 | > 500 |
| COCCOCC(=O)Nc1nc(N2CCN(C(=O)Cc3ccc(C#N)cc3)C3(CC3)C2)c2cc[nH]c2n1 [Example 96, N-(4-{4-[2-(4-Cyano-phenyl)-acetyl]-4,7-diaza-spiro[2.5]oct-7-yl}-7H-pyrrolo[2,3-d]pyrimidin-2-yl)-2-(2-methoxy-ethoxy)-acetamide] | < 100 | < 100 | 100 to 500 | > 500 |  |  |  |  |
| N#CCCCC(=O)N1CCN(c2nc(N)nc3[nH]ccc23)CC12CC2 [Example 310, 5-[7-(2-Amino-7H-pyrrolo[2,3-d]pyrimidin-4-yl)-4,7-diaza-spiro[2.5]oct-4-yl]-5-oxo-pentanenitrile] |  |  |  |  | < 100 | < 100 | < 100 | > 500 |
| N#Cc1ccccc1C(=O)N1[C@@H]2CC[C@@H]1CN(c1ncnc3[nH]ccc13)C2 [Example 249, 2-[3-(7H-Pyrrolo[2,3-d]pyrimidin-4-yl)-3,8-diaza-bicyclo[3.2.1]octane-8-carbonyl]-benzonitrile] |  |  |  |  | 100 to 500 | < 100 | 100 to 500 | > 500 |
| NS(=O)(=O)CCC(=O)N1CCN(c2ncnc3[nH]ccc23)CC12CC2 [Example 17, 3-Oxo-3-[7-(7H-pyrrolo[2,3-d]pyrimidin-4-yl)-4,7-diazaspiro[2.5]oct-4-yl]propane-1-sulfonic acid amide] | < 100 | < 100 | < 100 | 100 to 500 |  |  |  |  |
| N#Cc1ccc(C(F)(F)C(=O)N2[C@@H]3CC[C@H]2CN(c2ncnc4[nH]ccc24)C3)cc1 [Example 65, 4-{1,1-Difluoro-2-oxo-2-[3-(7H-pyrrolo[2,3-d]pyrimidin-4-yl)-3,8-diaza-bicyclo[3.2.1]oct-8-yl]-ethyl}-benzonitrile] | 100 to 500 | < 100 | 100 to 500 | > 500 |  |  |  |  |
| Cc1ccc(C(=O)N2C3CCC2CN(c2ncnc4[nH]ccc24)C3)cc1S(N)(=O)=O [Example 138, 2-Methyl-5-[3-(7H-pyrrolo[2,3-d]pyrimidin-4-yl)-3,8-diaza-bicyclo[3.2.1]octane-8-carbonyl]-benzenesulfonamide] | < 100 | < 100 | < 100 | > 500 |  |  |  |  |
| COc1cnc2[nH]ccc2c1N1CCN(C(=O)c2ccc(-c3ccccc3)s2)C2(CC2)C1 [Example 290, [7-(5-Methoxy-1H-pyrrolo[2,3-b]pyridin-4-yl)-4,7-diaza-spiro[2.5]oct-4-yl]-(5-phenyl-thiophen-2-yl)-methanone] |  |  |  |  | > 500 | > 500 | > 500 | > 500 |
| N#CCc1cccc(CC(=O)N2CCN(c3ncnc4[nH]cc(Cl)c34)CC23CC3)c1 [Example 318, (3-{2-[7-(5-Chloro-7H-pyrrolo[2,3-d]pyrimidin-4-yl)-4,7-diaza-spiro[2.5]oct-4-yl]-2-oxo-ethyl}-phenyl)-acetonitrile] |  |  |  |  | > 500 | > 500 | > 500 | > 500 |
| CS(=O)(=O)c1cccc(C(=O)N2C3CCC2CN(c2ncnc4[nH]ccc24)C3)c1 [Example 135, (3-Methanesulfonyl-phenyl)-[3-(7H-pyrrolo[2,3-d]pyrimidin-4-yl)-3,8-diaza-bicyclo[3.2.1]oct-8-yl]-methanone] | < 100 | < 100 | 100 to 500 | > 500 |  |  |  |  |
| Cc1c[nH]c2ncnc(N3CCN(C(=O)c4cnccn4)C4(CC4)C3)c12 [Example 326, [7-(5-Methyl-7H-pyrrolo[2,3-d]pyrimidin-4-yl)-4,7-diaza-spiro[2.5]oct-4-yl]-pyrazin-2-yl-methanone] |  |  |  |  | > 500 | > 500 | > 500 | > 500 |
| NS(=O)(=O)CCCC(=O)N1CCN(c2ncnc3[nH]ccc23)CC12CC2 [Example 143, 4-Oxo-4-[7-(7H-pyrrolo[2,3-d]pyrimidin-4-yl)-4,7-diaza-spiro[2.5]oct-4-yl]-butane-1-sulfonic acid amide] | < 100 | < 100 | < 100 | > 500 |  |  |  |  |

The next lines start with the values.

| EC50 [1] [nM] | EC50 [2] [nM] | EC50 [3] [nM] | EC50 [4] [nM] | EC50 ([1]; HTRF assay) [nM] | EC50 ([2]; HTRF assay) [nM] | EC50 ([3]; HTRF assay) [nM] | EC50 ([4]; HTRF assay) [nM] | Structure (SMILES) |
| --- | --- | --- | --- | --- | --- | --- | --- | --- |
|  |  |  |  | < 100 | < 100 | < 100 | > 500 | NS(=O)(=O)c1cccc(CC(=O)N2CCN(c3ncnc4[nH]ccc34)CC23CC3)c1 [Example 398, 3-{2-Oxo-2-[7-(7H-pyrrolo[2,3-d]pyrimidin-4-yl)-4,7-diaza-spiro[2.5]oct-4-yl]-ethyl}-benzenesulfonamide] |
| < 100 | < 100 | < 100 | 100 to 500 |  |  |  |  | O=C(c1cc2ccccc2[nH]1)N1CCN(c2ncnc3[nH]ccc23)CC12CC2 [Example 55, (1H-Indol-2-yl)-[7-(7H-pyrrolo[2,3-d]pyrimidin-4-yl)-4,7-diazaspiro[2.5]oct-4-yl]methanone] |
| < 100 | < 100 | 100 to 500 | > 500 |  |  |  |  | CC(C#N)c1cccc(C(=O)N2CCN(c3ncnc4[nH]ccc34)CC23CC3)c1 (centres unmarked) [Example 8, 2-{3-[7-(7H-Pyrrolo[2,3-d]pyrimidin-4-yl)-4,7-diazaspiro[2.5]octane-4-carbonyl]phenyl}propionitrile] |
| < 100 | < 100 | 100 to 500 | > 500 |  |  |  |  | O=C(c1cccnc1)N1CCN(c2ncnc3[nH]ccc23)CC12CC2 [Example 42, Pyridin-3-yl-[7-(7H-pyrrolo[2,3-d]pyrimidin-4-yl)-4,7-diazaspiro[2.5]oct-4-yl]methanone] |
|  |  |  |  | < 100 | < 100 | < 100 | < 100 | CCS(=O)(=O)Nc1ccc(C(=O)N2CCN(c3ncnc4[nH]ccc34)CC23CC3)cc1 [Example 210, Ethanesulfonic acid {4-[7-(7H-pyrrolo[2,3-d]pyrimidin-4-yl)-4,7-diaza-spiro[2.5]octane-4-carbonyl]-phenyl}-amide] |
|  |  |  |  | < 100 | < 100 | 100 to 500 | 100 to 500 | CS(=O)(=O)c1ccc(C(=O)N2CCN(c3ncnc4[nH]ccc34)CC23CC3)cc1 [Example 364, (4-Methanesulfonyl-phenyl)-[7-(7H-pyrrolo[2,3-d]pyrimidin-4-yl)-4,7-diaza-spiro[2.5]oct-4-yl]-methanone] |
|  |  |  |  | < 100 | < 100 | < 100 | < 100 | COc1csc(C(=O)N2CCN(c3ncnc4[nH]ccc34)CC23CC3)c1 [Example 386, (4-Methoxy-thiophen-2-yl)-[7-(7H-pyrrolo[2,3-d]pyrimidin-4-yl)-4,7-diaza-spiro[2.5]oct-4-yl]-methanone] |
|  |  |  |  | < 100 | < 100 | < 100 | 100 to 500 | NS(=O)(=O)Cc1ccc(C(=O)N2CCN(c3ncnc4[nH]ccc34)CC23CC3)cc1 [Example 409, {4-[7-(7H-Pyrrolo[2,3-d]pyrimidin-4-yl)-4,7-diaza-spiro[2.5]octane-4-carbonyl]-phenyl}-methanesulfonamide] |
|  |  |  |  | < 100 | < 100 | > 500 | > 500 | O=C(c1ccc2c(c1)CCCC2)N1CCN(c2ncnc3[nH]ccc23)CC12CC2 [Example 218, [7-(7H-Pyrrolo[2,3-d]pyrimidin-4-yl)-4,7-diaza-spiro[2.5]oct-4-yl]-(5,6,7,8-tetrahydro-naphthalen-2-yl)-methanone] |
